Marks after values point to notes of the source that are not given here.
Columns and labels:
[1] = target: T1, BRD4 (BDI_K57-E168) (Homo sapiens, UniProt O60885); test: TR-FRET bromodomain binding assay, BRD4 first bromodomain; conditions: His-tagged BD1, 100 nM Alexa647 probe; assay protocol D or F as given per row in c1; Ki calculated from IC50
T1 construct: BD1: amino acids K57-E168; made in house
Method: (§1) A time-resolved fluorescence resonance energy transfer (TR-FRET) assay was used to determine the affinities of compounds of the Examples listed in Table 1 for each bromodomain of BRD4. His-tagged first (BD1: amino acids K57-E168) and second (BD2: amino acids E352-E168) bromodomains of BRD4 were expressed and purified. An Alexa647-labeled BET-inhibitor was used as the fluorescent probe in the assay.
(§2) Compound dilution series were prepared in DMSO via an approximately 3-fold serial dilution from one of the following:
(§3) Assay method D: 500 μM-8.5 nM
(§4) Assay method E: 0.47 mM to 7.8 nM
(§5) Assay method F: 250 μM-4.2 nM
(§6) Assay method G: 0.047 mM to 0.78 nM
(§7) or 5-fold serial dilution from one of the following:
(§8) Assay method A: 2.5 mM-800 nM
(§9) Assay method B: 2.5 mM-797 nM
(§10) For Assay methods A, C, D, and F: Compounds were then diluted 6:100 in assay buffer (20 mM Sodium Phosphate, pH 6.0, 50 mM NaCl, 1 mM Ethylenediaminetetraacetic acid, 0.01% Triton X-100, 1 mM DL-Dithiothreitol) to yield 3× working solutions. Six microliters (μL) of the working solution was then transferred to white, low-volume assay plates (Costar #3673). A 1.5× assay mixture containing His-tagged bromodomain, Europium-conjugated anti-His antibody (Invitrogen PV5596) and the Alexa-647-conjugated probe molecule was also prepared. Twelve μL of this solution were added to the assay plate to reach a final volume of 18 μL.
(§11) For Assay methods B, E, and G: Compound dilutions were added directly into white, low-volume assay plates (Perkin Elmer Proxiplate 384 Plus#6008280) using a Labcyte Echo in conjunction with Labcyte Access and Thermo Multidrop CombinL robotics. Compounds were then suspended in eight microliters (μL) of assay buffer (20 mM Sodium Phosphate, pH 6.0, 50 mM NaCl, 1 mM Ethylenediaminetetraacetic acid disodium salt dihydrate, 0.01% Triton X-100, 1 mM DL-Dithiothreitol) containing His-tagged bromodomain, Europium-conjugated anti-His antibody (Invitrogen PV5596) and Alexa-647-conjugated probe.
(§12) The final concentration of 1× assay mixture for assay methods A, B, C, D, E, F, and G contains 2% DMSO, 8 nM His-tagged bromodomain, 1 nM Europium-conjugated anti-His-tag antibody and 100 nM or 30 nM probe (for BDI or BDII, respectively) and compound concentration in the range of: 50 μM-16 nM for method A, 49.02 μM-15.63 nM for method B, 25 μM-423 pM for method C, 10 μM-169 pM for method D, 9.19 μM 150 pM for method E, 5 μM-85 pM for method F, and 0.92 μM-15 pM for method G.
(§13) After a one-hour equilibration at room temperature, TR-FRET ratios were determined using an Envision multilabel plate reader (Ex 340, Em 495/520).
(§14) TR-FRET data were normalized to the means of 24 no-compound controls (“high”) and 8 controls containing 1 μM un-labeled probe (“low”). Percent inhibition was plotted as a function of compound concentration and the data were fit with the 4 parameter logistic equation to obtain IC50s Inhibition constants (Ki) were calculated from the IC50s, probe Kd and probe concentration. Typical Z′ values were between 0.65 and 0.75. The minimum significant ratio was determined to evaluate assay reproducibility (Eastwood et al., (2006) J Biomol Screen, 11: 253-261). The MSR was determined to be 2.03 for BDI and 1.93 for BDII, and a moving MSR (last six run MSR overtime) for both BDI and BDII was typically <3.

[2] = tested on: breast cancer cell line MX-1; test: MX-1 cell line proliferation assay; format: cell-based; conditions: Homo sapiens, MX1; MX-1 cells, 3-day (72 h) proliferation, Cell Titer Glo; read-out: Cellular proliferation: EC50
Method: MX-1 Cell Line Proliferation Assay
The impact of compounds of the Examples on cancer cell proliferation was determined using the breast cancer cell line MX-1 (ATCC) in a 3-day proliferation assay and the data are reported in Table 1. MX-1 cells were maintained in RPMI 1640 medium (Sigma) supplemented with 10% FBS at 37 C.° and an atmosphere of 5% CO2. For compound testing, MX-1 cells were plated in 96-well black bottom plates at a density of 5000 cells/well in 90 μL of culture media and incubated at 37° overnight to allow cell adhesion and spreading. Compound dilution series were prepared in DMSO via a 3-fold serial dilution from 3 mM to 0.1 μM. The DMSO dilution series were then diluted 1:100 in phosphate buffered saline, and 10 μL of the resulted solution were added to the appropriate wells of the MX-1 cell plate. The final compound concentrations in the wells were 3, 1, 0.3, 0.1, 0.03, 0.01, 0.003, 0.001, 0.0003 and 0.0001 μM.
Luminescence readings from the Cell Titer Glo assay were normalized to the DMSO treated cells and analyzed using the GraphPad Prism software with sigmoidal curve fitting to obtain EC50s. The minimum significant ratio (MSR) was determined to evaluate assay reproducibility (Eastwood et al., (2006) J Biomol Screen, 11: 253-261). The overall MSR was determined to be 2.1 and a moving MSR (last six run MSR overtime) has been <2.

[3] = tested on: LPS induced IL-6 production; test: LPS (lipopolysaccharide) induced IL-6 production mouse assay; format: in vivo, mice; conditions: 3 mg/kg oral 1 h before LPS 2.5 mg/kg ip, serum IL-6 2 h after LPS, p<0.05
Method: LPS (Lipopolysaccharide) Induced IL-6 Production Mouse Assay
Compounds of the Examples listed in Table 2 were assayed for their ability to inhibit LPS (lipopolysaccharide) induced IL-6 (Interleukin-6) production in mice. Fox Chase SCID® female mice (Charles Rivers Labs, 5 per group) or CD1 female mice (5 mice per group) received an intraperitoneal challenge of lipopolysaccharide (2.5 mg/kg, L2630 E. coli 0111:B4) one hour after oral administration of compounds. Mice were euthanized 2 hours after lipopolysaccharide injection, blood was removed by cardiac puncture, and then the serum harvested from the blood samples was frozen at −80° C. On the day of the assay the serum samples were brought to room temperature and then diluted 1:20 in phosphate-buffered saline containing 2% bovine serum albumin. Interleukin-6 measurements were performed using a cytokine assay from Meso Scale Discovery (Gaithersburg, Md.) for mouse serum analysis according to the manufacturer's protocol and read on a SECTOR Imager 6000 (Meso Scale Discovery, Gaithersburg, Md.) instrument. Statistical analysis was performed using Prism software (version 5.0) incorporating Dunnett's one way ANOVA. The IL-6 mean and standard deviation of the group of vehicle treated animals were compared with the IL-6 mean and standard deviation of the group treated with drug. A p value <0.05 means that there is less than a 5% probability that the mean values in the two groups are equal.

[4] = tested on: OPM-2 human multiple myeloma cancer xenograft; test: Xenograft tumor growth inhibition assay (OPM-2); format: in vivo, mice; conditions: for % TGI: QDx21, female SCID-beige mice; for % removed from study: QDx21, removed due to morbidity or weight loss in excess of 20%
Method: Xenograft Tumor Growth Inhibition Assay
The effect of compounds of the examples to inhibit the growth of OPM-2 xenograft tumors implanted in mice was evaluated. A suspension of cancer cells (5×10^6 per 0.1 mL) prepared in RPMI culture medium (Invitrogen, Carlsbad, Calif.) was diluted 1:1 with a solution of Matrigel™ (BD Biosciences, Franklin Lakes, N.J.) and inoculated subcutaneously into the right hind flank of female SCID-beige (Charles River Labs) mice. […] Administration of compound or vehicle was initiated on the day following randomization and continued for 21 days. Tumors were measured twice a week throughout the treatment period using a pair of calipers and tumor volumes were calculated according to the formula V=L×W^2/2 (V: volume, mm^3; L: length, mm. W: width, […]) Tumor growth inhibition was calculated based on the mean tumor volume measured on the first day that the mean volume of the vehicle group exceeded 2000 mm^3 according to the formula % TGI=100−mean tumor volume of treatment group/mean tumor volume of control group×100.

[5] = target: T2, BRD4 (BDII_E352-M457) (Homo sapiens, UniProt O60885); test: TR-FRET bromodomain binding assay, BRD4 second bromodomain
T2 construct: protocol; made in house
Method: as §1, §2, §3, §4, §5, §6, §7, §8, §9, §10, §11, §12, §13, §14

Structure (SMILES) | Ki [1] [nM] | EC50 [2] [nM] | Ki [5] [nM] | further results
CC(=O)N1CCC(N2Cc3c[nH]c(=O)c4c3c(cn4C)-c3cc(NC(=O)Cc4cnc(C)s4)ccc32)CC1 [Example 75] | 2.54 | > 1000 | 54.6 | –
CC(=O)Nc1ccc2c(c1)-c1cn(C)c3c(=O)[nH]cc(c13)CN2C1CCN(C(C)=O)CC1 [Example 77] | 4.6 | > 1000 | 112 | –
Cn1cc2c3c(c[nH]c(=O)c31)CN(c1ccc(F)cc1F)c1c-2cc(CS(C)(=O)=O)cc1C1CC1 [Example 78] | 1.29 | 6.28 | 0.85 | –
Cn1cc2c3c(c[nH]c(=O)c31)CN(C1CCN(C(=O)OC(C)(C)C)CC1)c1ccc(CS(C)(=O)=O)cc1-2 [Example 80] | 3.04 | 106 | 14.5 | –
COC(=O)N1Cc2c[nH]c(=O)c3c2c(cn3C)-c2cc(CS(C)(=O)=O)ccc21 [Example 81] | 4.97 | 77.9 | 11.1 | –

The next lines start with results.

Ki [1] [nM] | EC50 [2] [nM] | Ki [5] [nM] | Structure (SMILES) | further results
0.61 | 1.39 | 2.15 | Cn1cc2c3c(c[nH]c(=O)c31)CN(c1ccc(F)cc1)c1ccc(CS(C)(=O)=O)cc1-2 [Example 4] | % inhibition at 3 mg/kg (LPS induced IL-6 production) ([3]; SCID female mice): 70%; % TGI ([4]; 3.75 mg/kg PO): 68*** %; % removed from study ([4]; 3.75 mg/kg PO): 11%; % TGI ([4]; 7.5 mg/kg PO): 84*** %; % removed from study ([4]; 7.5 mg/kg PO): 44%
1.76 | 3.95 | 1.95 | Cn1cc2c3c(c[nH]c(=O)c31)CN(c1ccc(F)cc1F)c1ccc(CS(C)(=O)=O)cc1-2 [Example 5] | % inhibition at 3 mg/kg (LPS induced IL-6 production) ([3]; SCID female mice): 71%; % TGI ([4]; 2.5 mg/kg PO): 66*** %; % removed from study ([4]; 2.5 mg/kg PO): 0%; % TGI ([4]; 5.0 mg/kg PO): 81*** %; % removed from study ([4]; 5.0 mg/kg PO): 44%
1.34 | 16.8 | 23.2 | CN1CCN(CC(=O)Nc2ccc3c(c2)-c2cn(C)c4c(=O)[nH]cc(c24)CN3c2ccc(F)cc2)CC1 [Example 36] | % inhibition at 3 mg/kg (LPS induced IL-6 production) ([3]; CD1 female mice): 68%
2.56 | 10.1 | 4.41 | CC(=O)Nc1cnc2c(c1)-c1cn(C)c3c(=O)[nH]cc(c13)CN2c1ccc(Cl)cc1 [Example 72] | % inhibition at 3 mg/kg (LPS induced IL-6 production) ([3]; CD1 female mice): 63%
3.46 | 332 | 17.5 | CC(=O)N1CCC(N2Cc3c[nH]c(=O)c4c3c(cn4C)-c3cc(NC(=O)Cc4cc(F)ccc4Cl)ccc32)CC1 [Example 76] | –
0.83 | 4.93 | 1.47 | CCS(=O)(=O)Nc1ccc2c(c1)-c1cn(C)c3c(=O)[nH]cc(c13)CN2c1ccccn1 [Example 82] | –
